Test system: LLC-PK1, CCRF-CEM, CRL-1739, MDA-MB-231 and SKOV-3 cell lines
Experiment: MTS cell viability assay, statements over the whole cell line panel
Format: cell-based
Settings: Dox 5 µM, 24 and 72 h, 37 °C, n = 3
Description: To evaluate the cytotoxicity of synthesized linear (C(WR)xC) and cyclic [C(WR)xC] […] Doxorubicin (Dox, 5 µM) was used as a positive control.
The in vitro cytotoxicity of the peptides was evaluated using the human leukemia carcinoma cell line (CCRF-CEM), normal kidney cell line (LLC-PK1), gastric adenocarcinoma (CRL-1739), ovarian (SKOV-3), and breast carcinoma (MDA-MB-231) cell lines to determine the toxicity of the peptides according to the previously reported procedure [17]. CCRF-CEM cells were seeded at 50,000 cells in 0.1 mL per well in 96-well plates. Other cells were seeded at 5,000 cells in 0.1 mL per well in 96-well plates. All cell lines were seeded in RPMI-1640 medium (pH 7.4) containing FBS (10%), 24 h prior to the experiment. […] This generates formazan crystals which are soluble in cell culture medium and can be measured at 490 nm. Cell viability was then determined by measuring the fluorescence intensity at 490 nm using a SpectraMaxM2 microplate spectrophotometer (Molecular Devices, San Jose, CA, USA). The percentage of cell survival was calculated as [(OD value of cells treated with the test mixture of compounds)−(OD value of culture medium)]/[(OD value of control cells) − (OD value of culture medium)] × 100%.

**Q.** Which “cytotoxicity (percentage of cell survival), positive control” value does the source give for COc1cccc2c1C(=O)c1c(O)c3c(c(O)c1C2=O)C[C@@](O)(C(=O)CO)C[C@@H]3O[C@H]1C[C@H](N)[C@H](O)[C@H](C)O1 [Dox, Doxorubicin] here?
**A.** Its value is “cytotoxic even at 5 µM”.
